Molecules are shown by their SMILES.

Common to all, as to experiment: Ba/F3 cell viability, Cell Titer Glo
(In ATP-based viability assays light output follows the ATP content of the culture.)

One test has as its target EGFR R776H (Homo sapiens, UniProt P00533, R776H). Particulars: read-out: IC50 Values; Ba/F3 cells expressing EGFR R776H, 72 hours.
The next test has as its target EGFR S768dupSVD (Homo sapiens, UniProt P00533, DUP768-770). Particulars: read-out: IC50 Values; Ba/F3 cells expressing EGFR S768dupSVD, 72 hours.
The target of the next test is EGFR T725M (Homo sapiens, UniProt P00533, T725M). Particulars: read-out: IC50 Values; Ba/F3 cells expressing EGFR T725M, 72 hours.
In a further test the target is EGFR E709AG719S (Homo sapiens, UniProt P00533, E709A/G719S). Particulars: read-out: IC50 Values; Ba/F3 cells expressing EGFR E709AG719S, 72 hours.
Another test has as its target EGFR K757R (Homo sapiens, UniProt P00533, K757R). Particulars: read-out: IC50 Values; Ba/F3 cells expressing EGFR K757R, 72 hours.
The target of the next test is EGFR L861Q (Homo sapiens, UniProt P00533, L861Q). Particulars: read-out: IC50 Values; Ba/F3 cells expressing EGFR L861Q, 72 hours.
The next test concerns the target EGFR L858R L718Q (Homo sapiens, UniProt P00533, L718Q/L858R). Particulars: read-out: IC50 Values; Ba/F3 cells expressing EGFR L858R L718Q, 72 hours.
The next test has as its target EGFR Ex19del/C797S (Homo sapiens, UniProt P00533, C797S/DEL746-750). Particulars: read-out: IC50 Values; Ba/F3 cells expressing EGFR Ex19del/C797S, 72 hours.
The next test has as its target EGFR K754E (Homo sapiens, UniProt P00533, K754E). Particulars: read-out: IC50 Values; Ba/F3 cells expressing EGFR K754E, 72 hours.
A further test has as its target EGFR L858R/L792H (Homo sapiens, UniProt P00533, L792H/L858R). Particulars: read-out: IC50 Values; Ba/F3 cells expressing EGFR L858R/L792H, 72 hours.
A further test deals with EGFR Ex19del G796S (Homo sapiens, UniProt P00533, DEL746-750/G796S). Particulars: read-out: IC50 Values; Ba/F3 cells expressing EGFR Ex19del G796S, 72 hours.
The target of another test is EGFR H773insNPH (Homo sapiens, UniProt P00533, INS773NPH). Particulars: read-out: IC50 Values; Ba/F3 cells expressing EGFR H773insNPH, 72 hours.
For the next test, the target named is EGFR E709K G719S (Homo sapiens, UniProt P00533, E709K/G719S). Particulars: read-out: IC50 Values; Ba/F3 cells expressing EGFR E709K G719S, 72 hours.
Another test addresses EGFR Ex19del T790M C797S (Homo sapiens, UniProt P00533, C797S/DEL746-750/T790M). Particulars: read-out: IC50 Values; Ba/F3 cells expressing EGFR Ex19del T790M C797S, 72 hours.
A further test concerns the target EGFR Ex19delT790M (Homo sapiens, UniProt P00533, DEL746-750/T790M). Particulars: read-out: IC50 Values; Ba/F3 cells expressing EGFR Ex19delT790M, 72 hours.
The target in the next test is EGFR L718Q T790M (Homo sapiens, UniProt P00533, L718Q/T790M). Particulars: read-out: IC50 Values; Ba/F3 cells expressing EGFR L718Q T790M, 72 hours.
In the next test the target is EGFR S720P (Homo sapiens, UniProt P00533, S720P). Particulars: read-out: IC50 Values; Ba/F3 cells expressing EGFR S720P, 72 hours.
In a further test the target is EGFR V769L (Homo sapiens, UniProt P00533, V769L). Particulars: read-out: IC50 Values; Ba/F3 cells expressing EGFR V769L, 72 hours.
In another test the target is EGFR L718V (Homo sapiens, UniProt P00533, L718V). Particulars: read-out: IC50 Values; Ba/F3 cells expressing EGFR L718V, 72 hours.
For another test, the target named is EGFR V774M (Homo sapiens, UniProt P00533, V774M). Particulars: read-out: IC50 Values; Ba/F3 cells expressing EGFR V774M, 72 hours.
For the next test, the target named is EGFR A767insASV (Homo sapiens, UniProt P00533, DUP767-769). Particulars: read-out: IC50 Values; Ba/F3 cells expressing EGFR A767insASV, 72 hours.
EGFR A767insASV, sequence (P00533 with tags, fused parts or gaps DUP767-769): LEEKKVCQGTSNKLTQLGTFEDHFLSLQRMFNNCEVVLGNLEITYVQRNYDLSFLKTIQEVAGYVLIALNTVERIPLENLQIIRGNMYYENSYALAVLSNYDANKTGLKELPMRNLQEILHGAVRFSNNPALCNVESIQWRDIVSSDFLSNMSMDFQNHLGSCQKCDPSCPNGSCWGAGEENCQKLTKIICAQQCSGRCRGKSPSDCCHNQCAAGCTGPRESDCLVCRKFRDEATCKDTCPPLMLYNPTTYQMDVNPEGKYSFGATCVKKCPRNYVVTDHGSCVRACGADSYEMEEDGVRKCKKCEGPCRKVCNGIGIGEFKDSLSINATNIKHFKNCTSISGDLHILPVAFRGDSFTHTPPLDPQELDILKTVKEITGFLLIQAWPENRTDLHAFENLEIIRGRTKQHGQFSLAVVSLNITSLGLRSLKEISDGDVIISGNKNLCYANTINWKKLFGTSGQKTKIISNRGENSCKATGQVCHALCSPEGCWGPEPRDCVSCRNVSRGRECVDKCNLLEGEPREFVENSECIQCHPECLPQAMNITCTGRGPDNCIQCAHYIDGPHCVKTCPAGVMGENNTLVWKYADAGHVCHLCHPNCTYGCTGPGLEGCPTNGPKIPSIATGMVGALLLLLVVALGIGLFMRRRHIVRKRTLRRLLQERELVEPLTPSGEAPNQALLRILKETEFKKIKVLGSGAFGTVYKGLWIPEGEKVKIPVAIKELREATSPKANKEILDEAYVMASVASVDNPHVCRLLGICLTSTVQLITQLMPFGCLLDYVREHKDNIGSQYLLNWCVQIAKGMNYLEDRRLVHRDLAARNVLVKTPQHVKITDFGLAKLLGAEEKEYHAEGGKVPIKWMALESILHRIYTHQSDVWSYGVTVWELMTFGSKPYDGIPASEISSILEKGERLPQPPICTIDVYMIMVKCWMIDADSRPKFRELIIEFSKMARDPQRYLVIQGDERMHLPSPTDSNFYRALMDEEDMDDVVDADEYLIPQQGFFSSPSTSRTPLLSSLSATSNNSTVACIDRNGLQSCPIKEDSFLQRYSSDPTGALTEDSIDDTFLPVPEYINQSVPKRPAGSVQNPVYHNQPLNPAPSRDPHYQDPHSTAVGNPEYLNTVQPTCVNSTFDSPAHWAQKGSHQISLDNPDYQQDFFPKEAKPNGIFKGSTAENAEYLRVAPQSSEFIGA

EGFR S720P, sequence (P00533 25-1210 S720P): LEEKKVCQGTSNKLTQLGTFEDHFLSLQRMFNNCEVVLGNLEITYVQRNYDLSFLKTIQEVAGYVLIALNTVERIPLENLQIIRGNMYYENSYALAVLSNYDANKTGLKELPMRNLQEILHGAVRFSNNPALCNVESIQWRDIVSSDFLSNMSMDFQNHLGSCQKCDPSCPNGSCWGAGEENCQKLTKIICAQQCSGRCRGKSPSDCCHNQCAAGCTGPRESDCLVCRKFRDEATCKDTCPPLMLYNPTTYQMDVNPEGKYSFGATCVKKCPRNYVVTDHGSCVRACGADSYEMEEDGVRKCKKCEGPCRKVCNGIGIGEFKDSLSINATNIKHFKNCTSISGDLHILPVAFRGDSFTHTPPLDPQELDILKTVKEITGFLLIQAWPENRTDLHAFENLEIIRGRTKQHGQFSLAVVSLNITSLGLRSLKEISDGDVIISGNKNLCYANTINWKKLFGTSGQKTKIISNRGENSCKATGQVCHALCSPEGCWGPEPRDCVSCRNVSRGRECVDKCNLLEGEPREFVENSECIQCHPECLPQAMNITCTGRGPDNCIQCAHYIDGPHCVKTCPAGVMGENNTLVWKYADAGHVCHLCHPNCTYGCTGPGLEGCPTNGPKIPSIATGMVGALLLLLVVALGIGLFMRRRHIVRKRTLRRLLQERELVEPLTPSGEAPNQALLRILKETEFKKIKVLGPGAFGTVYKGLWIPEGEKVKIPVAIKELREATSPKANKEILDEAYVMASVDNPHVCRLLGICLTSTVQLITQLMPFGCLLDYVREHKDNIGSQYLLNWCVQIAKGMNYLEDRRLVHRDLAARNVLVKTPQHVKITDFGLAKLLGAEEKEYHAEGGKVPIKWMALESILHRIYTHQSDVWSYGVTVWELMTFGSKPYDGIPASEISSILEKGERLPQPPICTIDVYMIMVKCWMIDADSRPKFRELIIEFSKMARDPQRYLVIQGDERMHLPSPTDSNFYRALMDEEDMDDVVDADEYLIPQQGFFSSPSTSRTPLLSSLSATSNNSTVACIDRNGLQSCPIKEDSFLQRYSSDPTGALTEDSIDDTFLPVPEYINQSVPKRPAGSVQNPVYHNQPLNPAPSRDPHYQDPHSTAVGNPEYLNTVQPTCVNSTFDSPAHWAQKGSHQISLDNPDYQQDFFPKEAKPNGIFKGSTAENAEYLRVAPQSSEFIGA
EGFR L858R L718Q, sequence (P00533 25-1210 L718Q/L858R): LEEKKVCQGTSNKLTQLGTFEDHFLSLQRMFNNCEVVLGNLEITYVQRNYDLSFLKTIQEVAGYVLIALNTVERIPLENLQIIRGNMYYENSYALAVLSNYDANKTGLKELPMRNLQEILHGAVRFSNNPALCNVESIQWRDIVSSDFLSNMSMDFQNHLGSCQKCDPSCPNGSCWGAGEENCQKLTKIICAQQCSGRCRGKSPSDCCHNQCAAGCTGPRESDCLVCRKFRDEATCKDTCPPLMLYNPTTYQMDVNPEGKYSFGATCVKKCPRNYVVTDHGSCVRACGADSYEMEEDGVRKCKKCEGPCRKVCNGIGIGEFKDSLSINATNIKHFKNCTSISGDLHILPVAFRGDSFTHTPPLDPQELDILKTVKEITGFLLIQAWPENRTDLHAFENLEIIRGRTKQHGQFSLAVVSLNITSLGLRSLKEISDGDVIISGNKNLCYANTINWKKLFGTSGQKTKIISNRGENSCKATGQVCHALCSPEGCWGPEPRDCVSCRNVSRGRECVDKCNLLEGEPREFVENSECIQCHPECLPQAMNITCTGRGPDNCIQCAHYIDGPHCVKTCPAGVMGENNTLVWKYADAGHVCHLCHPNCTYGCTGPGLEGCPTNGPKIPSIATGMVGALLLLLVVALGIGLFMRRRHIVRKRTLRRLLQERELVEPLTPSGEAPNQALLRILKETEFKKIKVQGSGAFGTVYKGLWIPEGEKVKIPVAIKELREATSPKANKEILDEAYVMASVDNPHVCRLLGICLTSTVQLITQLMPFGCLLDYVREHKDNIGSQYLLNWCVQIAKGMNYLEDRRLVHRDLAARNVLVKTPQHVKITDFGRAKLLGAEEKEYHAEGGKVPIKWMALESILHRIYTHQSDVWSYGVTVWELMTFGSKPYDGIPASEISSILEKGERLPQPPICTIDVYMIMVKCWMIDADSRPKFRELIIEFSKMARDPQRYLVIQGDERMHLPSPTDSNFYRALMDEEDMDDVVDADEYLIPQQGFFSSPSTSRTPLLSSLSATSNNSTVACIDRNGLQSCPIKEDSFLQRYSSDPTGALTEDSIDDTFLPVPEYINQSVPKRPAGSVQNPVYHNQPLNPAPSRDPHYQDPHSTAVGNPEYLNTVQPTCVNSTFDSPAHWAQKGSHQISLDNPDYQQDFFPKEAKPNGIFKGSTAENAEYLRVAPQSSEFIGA
EGFR Ex19del G796S, sequence (P00533 with tags, fused parts or gaps DEL746-750/G796S): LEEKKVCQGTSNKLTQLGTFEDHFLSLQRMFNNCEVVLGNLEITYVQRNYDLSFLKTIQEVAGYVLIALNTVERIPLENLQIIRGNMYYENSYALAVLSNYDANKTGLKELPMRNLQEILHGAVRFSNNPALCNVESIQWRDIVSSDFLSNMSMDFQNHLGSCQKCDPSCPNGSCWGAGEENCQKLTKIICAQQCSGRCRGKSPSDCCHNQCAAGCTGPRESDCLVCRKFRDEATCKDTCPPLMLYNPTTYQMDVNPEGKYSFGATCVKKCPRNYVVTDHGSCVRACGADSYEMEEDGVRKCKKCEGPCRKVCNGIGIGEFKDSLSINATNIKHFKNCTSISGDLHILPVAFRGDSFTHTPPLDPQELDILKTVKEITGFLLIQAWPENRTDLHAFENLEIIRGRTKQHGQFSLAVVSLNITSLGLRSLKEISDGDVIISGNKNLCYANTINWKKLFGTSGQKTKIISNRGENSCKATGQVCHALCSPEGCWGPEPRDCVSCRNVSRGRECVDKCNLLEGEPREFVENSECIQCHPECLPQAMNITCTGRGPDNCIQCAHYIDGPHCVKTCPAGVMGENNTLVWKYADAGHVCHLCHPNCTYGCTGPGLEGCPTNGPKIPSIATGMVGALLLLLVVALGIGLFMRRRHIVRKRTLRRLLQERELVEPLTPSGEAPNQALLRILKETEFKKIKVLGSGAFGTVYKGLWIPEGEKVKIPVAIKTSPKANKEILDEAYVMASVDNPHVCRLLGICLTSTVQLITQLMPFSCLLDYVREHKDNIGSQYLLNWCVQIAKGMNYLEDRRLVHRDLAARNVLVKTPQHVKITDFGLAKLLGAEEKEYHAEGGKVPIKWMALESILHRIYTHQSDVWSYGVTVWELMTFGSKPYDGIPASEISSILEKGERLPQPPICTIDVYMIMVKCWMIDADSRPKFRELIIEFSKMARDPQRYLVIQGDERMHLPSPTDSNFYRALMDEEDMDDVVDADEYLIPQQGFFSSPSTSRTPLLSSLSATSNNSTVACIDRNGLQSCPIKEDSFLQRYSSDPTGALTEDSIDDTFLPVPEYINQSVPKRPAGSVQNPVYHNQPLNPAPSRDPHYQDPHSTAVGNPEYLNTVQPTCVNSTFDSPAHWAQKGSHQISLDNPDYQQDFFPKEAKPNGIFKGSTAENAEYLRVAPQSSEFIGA

On to `C=CC(=O)N1CC[C@@H](Oc2nc(Nc3ccc(N4CCC(N5CCN(C)CC5)CC4)cc3)c(C(N)=O)nc2CC)C1` [Naquotinib], for which the IC50 on EGFR R776H is 0.0686 µM; at EGFR S768dupSVD, 0.153 µM; on EGFR T725M, 0.0776 µM; on EGFR E709AG719S, 0.0481 µM; at EGFR K757R it was 0.122 µM; at EGFR L861Q it was 0.0774 µM. Besides, the IC50 at EGFR L858R L718Q was determined as 0.747 µM; at EGFR Ex19del/C797S, 1.54 µM; on EGFR K754E, 0.066 µM; on EGFR L858R/L792H, 0.0343 µM; at EGFR Ex19del G796S, 0.0532 µM; at EGFR H773insNPH, 0.145 µM. Moreover, the IC50 on EGFR E709K G719S was 0.0152 µM; on EGFR Ex19del T790M C797S, 1.97 µM; on EGFR Ex19delT790M, 0.00141 µM; on EGFR L718Q T790M, 0.212 µM; at EGFR S720P it was 0.0529 µM; at EGFR V769L it was 0.219 µM. For the same compound, the IC50 on EGFR L718V was 0.0784 µM; at EGFR V774M, 0.0385 µM; on EGFR A767insASV, 0.217 µM.

For orientation: IC50 means the concentration at which inhibition is half-maximal.

Source of the values: patent US20260240847A1, “COMPOUNDS WITH ANTI-TUMOR ACTIVITY AGAINST CANCER CELLS BEARING TYROSINE KINASE INHIBITOR RESISTANT EGFR MUTATIONS” (BOARD OF REGENTS, THE UNIVERSITY OF TEXAS SYSTEM, priority 2019, published 2026).
